Assay results from patent US7763600B2, “Hormone-based nitrogen monoxide donor compounds and use thereof in obstetrics and gynecology” (EFFIK, priority 2002, dated 2010).

Test system: human myometreal fragments
Experiment: Inhibition in vitro of the uterine contractility of myometreal fibers from uteruses of women who are not pregnant
Type: cell-based
Details: for Inhibition as % (Mean): spontaneous contractions
Description: Inhibition In Vitro of the Uterine Contractility of Myometreal Fibers from Uteruses of Women Who are Not Pregnant
The contractile activity of human myometreal fragments was studied in vitro.
After a lag time of approximately two hours, allowing the establishment of spontaneous contractions, the inhibition of the contractions, produced by addition to the medium of 17α-hydroxyprogesterone and of its nitro derivative, 17α-hydroxypregn-4-ene-3,20-dione (4′-nitro-oxymethyl)benzoate, identified in this table under the name 17α-hydroxypregn-4-ene-3,20-dione (4′-nitro-oxymethyl)benzoate (example 4), could be measured.
This experiment makes it possible to evaluate the short-term effect of this compound.

| Compound | Activity on contractions compared with hydroxyprogesterone (on average, action much more constant, less variable) | Inhibition as % (Mean) (concentration 2 × 10^−6 M) [%] | Inhibition as % (Mean) (concentration 2 × 10^−7 M) [%] |
| --- | --- | --- | --- |
| CC(=O)[C@@]1(OC(=O)c2ccc(CO[N+](=O)[O-])cc2)CC[C@H]2[C@@H]3CCC4=CC(=O)CC[C@]4(C)[C@H]3CC[C@@]21C [17α-hydroxypregn-4-ene-3,20-dione (4′-nitrooxymethyl)benzoate] | the same activity as hydroxyprogesterone | 69 | 37 |
| CC(=O)[C@@]1(O)CC[C@H]2[C@@H]3CCC4=CC(=O)CC[C@]4(C)[C@H]3CC[C@@]21C [17α-hydroxyprogesterone, reference compound] | – | 66 | 45 |
